Entries after “also recorded” stand apart in the source; their conditions may differ.
Tests used:
WT-CFTR-YFP-FRT cells = assay: Anionophore anion transport in WT-CFTR-YFP-FRT cells; type: cell-based, Fischer rat; settings: anionophore 50 μM, CFTRinh-172 10 μM
Description: Next, we sought to learn whether the activities of 11, 12, 15, and 19 are additive to that of CFTR. For these studies, we used FRT cells co-expressing wild-type human CFTR and YFP-H148Q/I152L (WT-CFTR-YFP-FRT cells).[28] […] This latter effect is difficult to explain and merits further investigation.
FRT cells stably expressing the halide sensor YFP-H148Q/I152L6 were generous gifts of AS Verkman (University of California, San Francisco), while CFBE41o- cells7 stably expressing YFP (YFP-CFBE cells) were a generous gift of LJV Galietta (Telethon Institute for Genetics and Medicine). YFP-FRT cells were cultured as described previously for FRT cells8 except that media contained 10% fetal bovine serum, 2 mM L-glutamine and the selection agent G418 (YFP-FRT cells, 0.5 mg ml-1; WT-CFTR-YFP-FRT cells, 0.75 mg ml-1) or zeocin (F508del-CFTR-YFP-FRT cells, 0.5 mg ml-1). YFP-CFBE cells were cultured in minimal essential medium (MEM) supplemented with 10% fetal bovine serum, 2 mM L-glutamine, 100 U ml-1 penicillin and 100 mg ml-1 streptomycin. […]
Fluorescence plate reader assay […]
quenching of YFP fluorescence at 37 °C using a microplate reader following the method of Galietta et al..9 The microplate reader (model: FLUORstar Omega; BMG LABTECH Ltd., Aylesbury, UK) was equipped with a syringe pump and excitation (500 ± 10 nm) and emission (535 ± 15 nm) filters (Chroma Technology GmbH, Olching, Germany). […]
the PBS bathing cells 10 minutes prior to PBS iodide addition, whereas UTP was added to cells with the PBS iodide solution. Fluorescence was measured for 14 seconds; 2 seconds before and 12 seconds after injection of 110 µl PBS iodide solution (137 mM Cl- replaced by I-) into each well (to obtain a final concentration of I- of 100 mM).
We expressed cell fluorescence values (F) relative to the fluorescence value immediately before I- injection (F0), excluding the initial decrease, which likely represents the quenching of extracellular YFP released from cells and signal reduction accompanying the increase in solution volume bathing cells. […]

YFP-CFBE cells = assay: XTT cell viability assay in YFP-CFBE cells; type: cell-based; settings: for cytotoxicity in YFP-CFBE cells (XTT): 1–50 μM, 18 h at 37 °C; for IC50: XTT, 18 h treatment, fit of first order regression (Fig. S23), read-out: half-maximal inhibitory concentration (IC50), cell viability
Protocol: For cytotoxicity studies, we used YFP-CFBE and YFP-FRT cells. YFP-CFBE cells were seeded in 96-well plates at a density of 5 x 10^4 cells/well and cultured at 37 °C in a humidified atmosphere of 5% CO2. Thirty hours after seeding the cells, different concentrations of anionophores were added to the culture media and the cells were incubated with anionophores for 18 h. To assay cell viability, we used the XTT Cell Proliferation Assay Kit (ATCC) according to the manufacturer’s instructions. The specific absorbance of test samples was measured using a Microplate Spectrophotometer (SpectraMax 190, Molecular Devices, Sunnyvale, CA, USA). In each experiment, multiple replicates (12 – 25 wells from 3 – 5 plates) were tested for each concentration of anionophore. […]
To evaluate the cytotoxicity of anionophores 11, 12, 15 and 19, we treated YFP-CFBE cells with the anionophores (1 – 50 µM) in DMSO for 18 h at 37 °C before assessing cell viability using sodium 2,3, -bis(2-methoxy-4-nitro-5-sulfophenyl)-5-[(phenylamino)-carbonyl]-2H-tetrazolium) (XTT). Figure S23 summarises the resu lts. Although compounds […]
(1 picture or pasted object on this page, not shown here)

[1] = set-up: method as in PMID 22461434, PMID 21846096, PMID 29786913; settings: mol% carrier to lipid for 50% Cl^– efflux in 270 s; 490 mM NaCl inside, 490 mM NaNO3 outside; ref [22], [16 and 25]; cited from earlier work

For `CCOC(=O)[C@]12CC[C@@H](NC(=S)Nc3ccc([N+](=O)[O-])cc3)C[C@@H]1C[C@@H](NC(=S)Nc1ccc([N+](=O)[O-])cc1)CC2` [Compound 12], the “effect of CFTRinh-172 on anion transport by anionophore” value (shortened to “effect”) (WT-CFTR-YFP-FRT cells) was “without effect”.
In the case of `CCOC(=O)[C@]12CC[C@@H](NC(=S)Nc3cc(C(F)(F)F)cc(C(F)(F)F)c3)C[C@@H]1C[C@@H](NC(=S)Nc1cc(C(F)(F)F)cc(C(F)(F)F)c1)CC2` [Compound 15], the “effect” value (WT-CFTR-YFP-FRT cells) is reported as “small, albeit significant, increase”, the “cytotoxicity in YFP-CFBE cells (XTT)” value (YFP-CFBE cells) is reported as “some cytotoxicity” and the IC50 (YFP-CFBE cells) is reported as > 50 µM.
For `FC(F)(F)c1ccc(NC(=S)NCCN(CCNC(=S)Nc2ccc(C(F)(F)F)cc2)CCNC(=S)Nc2ccc(C(F)(F)F)cc2)cc1` [Compound 18], the “EC50, 270 s” value [1] is listed as 0.077 mol%.
For `FC(F)(F)c1cc(NC(=S)NCCN(CCNC(=S)Nc2cc(C(F)(F)F)cc(C(F)(F)F)c2)CCNC(=S)Nc2cc(C(F)(F)F)cc(C(F)(F)F)c2)cc(C(F)(F)F)c1` [Compound 19], the “effect” value (WT-CFTR-YFP-FRT cells) was “inhibited the activity”, the “cytotoxicity in YFP-CFBE cells (XTT)” value (YFP-CFBE cells) was “some cytotoxicity; also recorded: strongest effect” and the IC50 (YFP-CFBE cells) was 38 µM. For the same molecule, the “EC50, 270 s” value [1] was 0.042 mol%.
